# According to patent publication US8663669B2, “Pesticide treatment of soils or substrates with sulphur compounds” (Arkema France, priority 2002, dated 2014):
# Experiment: Diffusion of DMDS into the soil (column of earth, gas chromatography)
# Assay type: physicochemical
# Procedure: The rate of diffusion of DMDS was studied by filling a sealed thermal glass chamber of 3.3 litres and 40 cm in height with 2.5 litres of earth (that is 33 cm) obtained from the Garonne valley (sandy-muddy soil containing 1.6% of organic matter); the DMDS was deposited at the surface of the earth in 2 doses: 300 and 800 kg/ha, that is, considering a disinfection over 30 cm, doses of 100 and 266.6 g/m^3 of soil. There are then measured by gas chromatography, as a function of time (in hours), the concentrations of DMDS in gaseous form (in g/m^3) in the top free volume of the chamber (point A) and at 11 cm (point B), 22 cm (point C) and 33 cm (point D) below the level of the earth by means of 3 openings equipped with sealed septums on the side of the chamber; the variation in the concentration as a function of time for the 4 measurement points is thus obtained, as shown in Table 2 in the case of the 800 kg/ha dose.
# The product CT of the concentrations C by the time of measurement T is another essential data which indicates the cumulative doses of DMDS to which are subjected the pathogenic organisms which may be present at the different measurement points. The CT values in gh/m^3 indicated in Table 3 are thus found for the two concentrations tested.
compound,measurement,setting,value
"CSSC [DMDS, dimethyl disulphide]",CT (product of concentrations C by time T),"300 kg/ha, A (0 cm)",3187 gh/m^3
same,CT (product of concentrations C by time T),"300 kg/ha, B (−11 cm)",2737 gh/m^3
same,CT (product of concentrations C by time T),"300 kg/ha, C (−22 cm)",2753 gh/m^3
same,CT (product of concentrations C by time T),"300 kg/ha, D (−33 cm)",2210 gh/m^3
same,DMDS concentration in gaseous form,"800 kg/ha dose, 0 h, A (0 cm)",0 g/m^3
same,DMDS concentration in gaseous form,"800 kg/ha dose, 0 h, B (−11 cm)",0 g/m^3
same,DMDS concentration in gaseous form,"800 kg/ha dose, 0 h, C (−22 cm)",0 g/m^3
same,DMDS concentration in gaseous form,"800 kg/ha dose, 0 h, D (−33 cm)",0 g/m^3
same,Time for the DMDS concentration to be homogeneous in the entire thickness of the column of earth,"800 kg/ha dose, 33 cm of earth",approximately 24 hours
same,DMDS concentration in gaseous form,"800 kg/ha dose, 1 h, A (0 cm)",144.9 g/m^3
same,DMDS concentration in gaseous form,"800 kg/ha dose, 1 h, B (−11 cm)",76.6 g/m^3
same,DMDS concentration in gaseous form,"800 kg/ha dose, 1 h, C (−22 cm)",3 g/m^3
same,DMDS concentration in gaseous form,"800 kg/ha dose, 1 h, D (−33 cm)",0 g/m^3
same,DMDS concentration in gaseous form,"800 kg/ha dose, 3 h, A (0 cm)",152.7 g/m^3
same,DMDS concentration in gaseous form,"800 kg/ha dose, 3 h, B (−11 cm)",73.9 g/m^3
same,DMDS concentration in gaseous form,"800 kg/ha dose, 3 h, C (−22 cm)",5.1 g/m^3
same,DMDS concentration in gaseous form,"800 kg/ha dose, 3 h, D (−33 cm)",0.3 g/m^3
same,DMDS concentration in gaseous form,"800 kg/ha dose, 5 h, A (0 cm)",96.3 g/m^3
same,DMDS concentration in gaseous form,"800 kg/ha dose, 5 h, B (−11 cm)",63.8 g/m^3
same,DMDS concentration in gaseous form,"800 kg/ha dose, 5 h, C (−22 cm)",48.4 g/m^3
same,DMDS concentration in gaseous form,"800 kg/ha dose, 5 h, D (−33 cm)",21.5 g/m^3
same,DMDS concentration in gaseous form,"800 kg/ha dose, 5.5 h, A (0 cm)",123.7 g/m^3
same,DMDS concentration in gaseous form,"800 kg/ha dose, 5.5 h, B (−11 cm)",91.4 g/m^3
same,DMDS concentration in gaseous form,"800 kg/ha dose, 5.5 h, C (−22 cm)",58.3 g/m^3
same,DMDS concentration in gaseous form,"800 kg/ha dose, 5.5 h, D (−33 cm)",29.4 g/m^3
same,DMDS concentration in gaseous form,"800 kg/ha dose, 24 h, A (0 cm)",32.7 g/m^3
same,DMDS concentration in gaseous form,"800 kg/ha dose, 24 h, B (−11 cm)",30.2 g/m^3
same,DMDS concentration in gaseous form,"800 kg/ha dose, 24 h, C (−22 cm)",40.1 g/m^3
same,DMDS concentration in gaseous form,"800 kg/ha dose, 24 h, D (−33 cm)",34.4 g/m^3
same,DMDS concentration in gaseous form,"800 kg/ha dose, 96 h, A (0 cm)",11.8 g/m^3
same,DMDS concentration in gaseous form,"800 kg/ha dose, 96 h, B (−11 cm)",11.5 g/m^3
same,DMDS concentration in gaseous form,"800 kg/ha dose, 96 h, C (−22 cm)",12.9 g/m^3
same,DMDS concentration in gaseous form,"800 kg/ha dose, 96 h, D (−33 cm)",14.6 g/m^3
same,CT (product of concentrations C by time T),"800 kg/ha, A (0 cm)",4145 gh/m^3
same,CT (product of concentrations C by time T),"800 kg/ha, B (−11 cm)",3327 gh/m^3
same,CT (product of concentrations C by time T),"800 kg/ha, C (−22 cm)",3276 gh/m^3
same,CT (product of concentrations C by time T),"800 kg/ha, D (−33 cm)",2809 gh/m^3
same,"CT values, order of magnitude",dose of 300 kg/ha,~2 500 gh/m^3
same,"CT values, order of magnitude",dose of 800 kg/ha,~3 000 gh/m^3
